# Assay results published in patent EP2951180B1, “2,6,7,8 SUBSTITUTED PURINES AS HDM2 INHIBITORS” (Merck Sharp & Dohme Corp., priority 2013, dated 2014).
# Target: T1, HDM2 (Homo sapiens, UniProt Q00987)
# T1 construct: Thioredoxin (N); made in house; host or cells: E. coli strain BL21(DE3)Rosetta
# Experiment: HDM2 FRET assay (inhibition of binding of FITC labeled p53-pocket peptide to HDM2)
# Details: 0.5 nM HDM2 (residues 17 to 125), 3nM peptide, two hour incubation at room temperature; read-out: FRET IC50
# Method in brief: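 Compounds were tested in 10-point serial dilution against 0.5 nM recombinant HDM2 binding 3 nM fluorescein-labeled p53-pocket peptide. Detection used 0.25 nM terbium cryptate anti-6xHis antibody in PBS buffer containing 0.01% BSA and 0.01% Tween-20.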
# T1 sequence (Q00987 17-125): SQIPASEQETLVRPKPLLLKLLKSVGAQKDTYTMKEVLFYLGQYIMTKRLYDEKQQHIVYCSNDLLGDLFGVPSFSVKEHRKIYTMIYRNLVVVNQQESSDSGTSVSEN
row,SMILES,IC50 [nM]
1,"C[C@H]1CC[C@H](Cn2c(N3CCOC[C@H]3c3ccccc3)nc3nc(-c4noc(=O)[nH]4)nc(-c4cc(Cl)cc(N5CCCC5)c4)c32)CC1 [Example 16.113, 3-{6-(3-chloro-5-pyrrolidin-1-ylphenyl)-7-[(trans-4-methylcyclohexyl)methyl]-8-[(3R)-3-phenylmorpholin-4-yl]-7H-purin-2-yl}-1,2,4-oxadiazol-5(4H)-one]",14.9
2,"C[C@H]1CC[C@H](Cn2c(N3CCOCC34CCC4)nc3nc(-c4noc(=O)[nH]4)nc(-c4cccc(Cl)c4)c32)CC1 [Example 16.80, 3-[6-(3-chlorophenyl)-7-[(trans-4-methylcyclohexyl)methyl]-8-(8-oxa-5-azaspiro[3.5]non-5-yl)-7H-purin-2-yl]-1,2,4-oxadiazol-5(4H)-one]",8.7
3,"C[C@@H](Nc1nc(N(C)CC(=O)O)nc2nc(N3CCOC[C@H]3c3ccccc3)n(C[C@H]3CC[C@H](C)CC3)c12)C1CCC1 [Example 13.8, N-(6-{[(1R)-1-cyclobutylethyl]amino}-7-[(trans-4-methylcyclohexyl)methyl]-8-[(3R)-3-phenylmorpholin-4-yl]-7H-purin-2-yl)-N-methylglycine]",120
4,"C[C@@H](Nc1nc(-c2noc(=O)[nH]2)nc2nc(-c3cc(C(C)(C)O)c(F)cn3)n(C[C@H]3CC[C@H](C)CC3)c12)C1CCC1 [Example 15.9, 3-(6-(((R)-1-cyclobutylethyl)amino)-8-(5-fluoro-4-(2-hydroxypropan-2-yl)pyridin-2-yl)-7-((trans-4-methylcyclohexyl)methyl)-7H-purin-2-yl)-1,2,4-oxadiazol-5(4H)-one]",3.95
5,"C[C@H]1CC[C@H](Cn2c(N3CCOC[C@H]3c3ccccc3)nc3nc(-c4noc(=O)[nH]4)nc(-c4cccc(C(F)F)c4)c32)CC1 [Example 16.31, 3-{6-[3-(difluoromethyl)phenyl]-7-[(trans-4-methylcyclohexyl)methyl]-8-[(3R)-3-phenylmorpholin-4-yl]-7H-purin-2-yl}-1,2,4-oxadiazol-5(4H)-one]",7.11
6,"COc1cc(-c2nc(-c3noc(=O)[nH]3)nc3nc(N4CCOC[C@H]4c4ccccc4)n(C[C@H]4CC[C@H](C)CC4)c23)cc(Cl)n1 [Example 16.109, 3-{6-(2-chloro-6-methoxypyridin-4-yl)-7-[(trans-4-methylcyclohexyl)methyl]-8-[(3R)-3-phenylmorpholin-4-yl]-7H-purin-2-yl}-1,2,4-oxadiazol-5(4H)-one]",1.21
7,"CCc1cccc(-c2nc(-c3noc(=O)[nH]3)nc3nc(N4CCOC[C@H]4c4ccccc4)n(C[C@H]4CC[C@H](C)CC4)c23)c1 [Example 16.30, 3-{6-(3-ethylphenyl)-7-[(trans-4-methylcyclohexyl)methyl]-8-[(3R)-3-phenylmorpholin-4-yl]-7H-purin-2-yl}-1,2,4-oxadiazol-5(4H)-one]",2.77
8,"CC(C)(O)c1ccnc(-c2nc3nc(-c4noc(=O)[nH]4)nc(-c4cccc(Cl)c4)c3n2C[C@H]2CC[C@H](C)CC2)c1 [Example 16.36, 3-{6-(3-chlorophenyl)-8-[4-(1-hydroxy-1-methylethyl)pyridin-2-yl]-7-[(trans-4-methylcyclohexyl)methyl]-7H-purin-2-yl}-1,2,4-oxadiazol-5(4H)-one]",26.2
9,"COC(=O)c1nc(N[C@H](C)C2CCC2)c2c(n1)nc(N1CCOC[C@H]1c1ccccc1)n2C[C@H]1CC[C@H](C)CC1 [Example 12.13, Methyl-6-{[(1R)-1-cyclobutylethyl]amino}-7-[(trans-4-methylcyclohexyl)methyl]-8-[(3R)-3-phenylmorpholin-4-yl]-7H-purine-2-carboxylate]",49.4
10,"CC[C@@H]1[C@@H](C)OCCN1c1nc2nc(-c3noc(=O)[nH]3)nc(-c3cncc(Cl)c3)c2n1C[C@H]1CC[C@H](C)CC1 [Example 16.152, 3-{6-(5-chloropyridin-3-yl)-8-[(2R,3R)-3-ethyl-2-methylmorpholin-4-yl]-7-[(trans-4-methylcyclohexyl)methyl]-7H-purin-2-yl}-1,2,4-oxadiazol-5(4H)-one]",5.68

# Same assay, conditions: Table 6; read-out: FRET IC50
row,SMILES,IC50 [nM]
1,"Cc1cccc(-c2nc3nc(C(=O)O)nc(N(C)CC(C)C)c3n2Cc2ccc(C(F)(F)F)cc2)c1 [Example 6.71, 6-[methyl(2-methylpropyl)amino]-8-(3-methylphenyl)-7-[4-(trifluoromethyl)benzyl]-7H-purine-2-carboxylic acid]",940
2,"Cc1cccc(-c2nc3nc(C(=O)O)nc(NC4CCCC4)c3n2Cc2ccc(C(F)(F)F)cc2)c1 [Example 6.22, 6-(cyclopentylamino)-8-(3-methylphenyl)-7-[4-(trifluoromethyl)benzyl]-7H-purine-2-carboxylic acid]",649

# Same assay, conditions: Table 7; read-out: FRET IC50
row,SMILES,IC50 [nM]
1,"COc1ccc(C)cc1-c1nc2nc(C(=O)O)nc(N[C@H](C)C3CC3(F)F)c2n1Cc1ccc(C(F)(F)F)cc1 (stereo partly drawn) [Example 7.19, 6-{[(1R)-1-(2,2-difluorocyclopropyl)ethyl]amino}-8-(2-methoxy-5-methylphenyl)-7-[4-(trifluoromethyl)benzyl]-7H-purine-2-carboxylic acid]",772

# Same assay, conditions: Table 9; read-out: FRET IC50
row,SMILES,IC50 [nM]
1,C[C@@H](Nc1ncnc2nc(N[C@@H](CO)c3ccccc3)n(Cc3ccc(C(F)(F)F)cc3)c12)C1CCC1 [Example 9.29],4470
2,"C[C@@H](Nc1nc(C(=O)O)nc2nc(N[C@@H](CO)c3ccccc3)n(Cc3ccc(C(F)(F)F)cc3)c12)C1CCC1 [Example 9.6, 6-{[(1R)-1-cyclobutylethyl]amino}-8-{[(1R)-2-hydroxy-1-phenylethyl]amino}-7-[4-(trifluoromethyl)benzyl]-7H-purine-2-carboxylic acid]",1.47
3,"C[C@@H](Nc1nc(-c2noc(=O)[nH]2)nc2nc(N(C)CC3CCOCC3)n(Cc3ccc(C(F)(F)F)cc3)c12)C1CCC1 [Example 9.93, 3-(6-{[(1R)-1-cyclobutylethyl]amino}-8-[methyl(tetrahydro-2H-pyran-4-ylmethyl)amino]-7-[4-(trifluoromethyl)benzyl]-7H-purin-2-yl)-1,2,4-oxadiazol-5(4H)-one]",47
4,"C[C@@H](CO)Nc1nc2nc(C(=O)O)nc(N[C@H](C)C3CCC3)c2n1Cc1ccc(C(F)(F)F)cc1 [Example 9.10, 6-{[(1R)-1-cyclobutylethyl]amino}-8-{[(1S)-2-hydroxy-1-methylethyl]amino}-7-[4-(trifluoromethyl)benzyl]-7H-purine-2-carboxylic acid]",85.9

# Same assay, conditions: Table 11; read-out: FRET IC50
row,SMILES,IC50 [nM]
1,"CC(C)C[C@H]1CCCCN1c1nc2nc(-c3noc(=O)[nH]3)nc(N[C@H](C)C3CCC3)c2n1C[C@H]1CC[C@H](C)CC1 [Example 11.83, 3-(6-{[(1R)-1-cyclobutylethyl]amino}-7-[(trans-4-methylcyclohexyl)methyl]-8-[(2R)-2-(2-methylpropyl)piperidin-1-yl]-7H-purin-2-yl)-1,2,4-oxadiazol-5(4H)-one]",11.5
2,"CC(C)CC1CCCCN1c1nc2nc(-c3noc(=O)[nH]3)nc(N[C@H](C)C3CCC3)c2n1C[C@H]1CC[C@H](C)CC1 (stereo partly drawn) [Example 11.3, 3-(6-(((R)-1-cyclobutylethyl)amino)-8-(2-isobutylpiperidin-1-yl)-7-((trans-4-methylcyclohexyl)methyl)-7H-purine-2-yl)-1,2,4-oxadiazol-5(4H)-one]",6.14
3,"C[C@@H](Nc1nc(-c2noc(=O)[nH]2)nc2nc(N3CCCOCC3)n(C[C@H]3CC[C@H](C)CC3)c12)C1CCC1 [Example 11.105, 3-[6-{[(1R)-1-cyclobutylethyl]amino}-7-[(trans-4-methylcyclohexyl)methyl]-8-(1,4-oxazepan-4-yl)-7H-purin-2-yl]-1,2,4-oxadiazol-5(2H)-one]",42.6
4,"C[C@@H](Nc1nc(-c2noc(=O)[nH]2)nc2nc(N3CCOC4CC43)n(C[C@H]3CC[C@H](C)CC3)c12)C1CCC1 (stereo partly drawn) [Example 11.127, 3-[6-{[(1R)-1-cyclobutylethyl]amino}-7-[(trans-4-methylcyclohexyl)methyl]-8-(2-oxa-5-azabicyclo[4.1.0]hept-5-yl)-7H-purin-2-yl]-1,2,4-oxadiazol-5(4H)-one]",26.2
5,"C[C@@H](Nc1nc(-c2noc(=O)[nH]2)nc2nc(N(C)Cc3cscn3)n(C[C@H]3CC[C@H](C)CC3)c12)C1CCC1 [Example 11.74, 3-(6-{[(1R)-1-cyclobutylethyl]amino}-7-[(trans-4-methylcyclohexyl)methyl]-8-[methyl(1,3-thiazol-4-ylmethyl)amino]-7H-purin-2-yl)-1,2,4-oxadiazol-5(2H)-one]",133

# Same assay, conditions: Table 18; read-out: FRET IC50
row,SMILES,IC50 [nM]
1,"CC([C@H]1CC[C@H](C)CC1)n1c(N2CCOC[C@H]2C)nc2nc(-c3noc(=O)[nH]3)nc(N[C@H](C)C3CCC3)c21 (single isomer, unassigned) [Example 18.12]",2.82

# Same assay, conditions: Table 21; read-out: FRET IC50
row,SMILES,IC50 [nM]
1,"C[C@@H](Nc1nc(C(=O)O)nc2nc(C3CCCC3c3ccccc3)n(Cc3ccc(C(F)(F)F)cc3)c12)C1CCC1 (single isomer, unassigned) [Example 21.5]",26.5

# Same assay, conditions: Table 22; read-out: FRET IC50
row,SMILES,IC50 [nM]
1,"CC(c1ccccn1)c1nc2nc(-c3noc(=O)[nH]3)nc(N[C@H](C)C3CCC3)c2n1C[C@H]1CC[C@H](C)CC1 (stereo partly drawn) [Example 22.71, 3-[6-{[(1R)-1-cyclobutylethyl]amino}-7-[(trans-4-methylcyclohexyl)methyl] -8-(1-pyridin-2-ylethyl)-7H-purin-2-yl]-1,2,4-oxadiazol-5(4H)-one]",6.49
2,"CC(=O)c1nc2nc(-c3noc(=O)[nH]3)nc(N[C@H](C)C3CCC3)c2n1C[C@H]1CC[C@H](C)CC1 [Example 22.32, 3-(8-acetyl-6-{[(1R)-1-cyclobutylethyl]amino}-7-[(trans-4-methylcyclohexyl)methyl] -7H-purin-2-yl)-1,2,4-oxadiazol-5(2H)-one]",25.3

# Same assay, conditions: Table 23; read-out: FRET IC50
row,SMILES,IC50 [nM]
1,"C[C@H]1CC[C@H](Cn2c(C3(F)CCC3)nc3nc(-c4n[nH]c(=O)o4)nc(-c4cncc(Cl)c4)c32)CC1 [Example 23.38, 5-{6-(5-chloropyridin-3-yl)-8-(1-fluorocyclobutyl)-7-[(trans-4-methylcyclohexyl)methyl] -7H-purin-2-yl}-1,3,4-oxadiazol-2(3H)-one]",31.1
